# Results reported in patent publication US11179383B2 (Gilead Sciences, Inc., priority 2018, dated 2021).
# Target: T1, α4β7 integrin (Homo sapiens, UniProt P13612+P26010)
# T1 construct: monitoring the capture of α4β7 integrin expressing cells on a recombinant MadCAM-1 extracellular domain-coated plate; endogenous in cells; host or cells: RPMI8866 cells
# T1 sequence (P13612 34-1032): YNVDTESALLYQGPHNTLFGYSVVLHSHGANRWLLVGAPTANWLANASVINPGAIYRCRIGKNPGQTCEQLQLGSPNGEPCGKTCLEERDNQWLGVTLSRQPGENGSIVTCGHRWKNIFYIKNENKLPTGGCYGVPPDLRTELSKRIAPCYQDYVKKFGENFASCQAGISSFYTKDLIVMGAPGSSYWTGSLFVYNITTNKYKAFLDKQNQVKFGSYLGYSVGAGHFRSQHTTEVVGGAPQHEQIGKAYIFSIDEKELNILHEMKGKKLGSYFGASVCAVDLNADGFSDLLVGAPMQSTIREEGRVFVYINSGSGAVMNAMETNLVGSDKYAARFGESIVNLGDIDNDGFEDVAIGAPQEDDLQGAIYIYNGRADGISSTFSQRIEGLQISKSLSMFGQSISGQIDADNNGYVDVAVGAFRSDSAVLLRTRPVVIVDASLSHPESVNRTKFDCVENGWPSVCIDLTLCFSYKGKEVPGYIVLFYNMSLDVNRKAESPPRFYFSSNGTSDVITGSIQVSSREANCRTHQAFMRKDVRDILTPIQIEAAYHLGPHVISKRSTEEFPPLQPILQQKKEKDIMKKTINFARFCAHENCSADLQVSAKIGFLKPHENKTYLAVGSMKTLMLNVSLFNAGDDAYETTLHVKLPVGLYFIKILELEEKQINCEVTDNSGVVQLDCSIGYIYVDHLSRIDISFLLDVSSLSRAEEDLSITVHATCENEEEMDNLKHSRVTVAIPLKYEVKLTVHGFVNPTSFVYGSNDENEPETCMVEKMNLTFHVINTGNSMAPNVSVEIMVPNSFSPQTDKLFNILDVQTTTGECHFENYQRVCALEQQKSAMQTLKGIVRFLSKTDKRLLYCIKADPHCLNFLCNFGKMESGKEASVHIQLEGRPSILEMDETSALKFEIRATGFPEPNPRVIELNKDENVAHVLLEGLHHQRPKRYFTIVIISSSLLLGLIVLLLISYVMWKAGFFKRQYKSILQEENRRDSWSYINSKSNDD
# T1 sequence (P26010 20-798): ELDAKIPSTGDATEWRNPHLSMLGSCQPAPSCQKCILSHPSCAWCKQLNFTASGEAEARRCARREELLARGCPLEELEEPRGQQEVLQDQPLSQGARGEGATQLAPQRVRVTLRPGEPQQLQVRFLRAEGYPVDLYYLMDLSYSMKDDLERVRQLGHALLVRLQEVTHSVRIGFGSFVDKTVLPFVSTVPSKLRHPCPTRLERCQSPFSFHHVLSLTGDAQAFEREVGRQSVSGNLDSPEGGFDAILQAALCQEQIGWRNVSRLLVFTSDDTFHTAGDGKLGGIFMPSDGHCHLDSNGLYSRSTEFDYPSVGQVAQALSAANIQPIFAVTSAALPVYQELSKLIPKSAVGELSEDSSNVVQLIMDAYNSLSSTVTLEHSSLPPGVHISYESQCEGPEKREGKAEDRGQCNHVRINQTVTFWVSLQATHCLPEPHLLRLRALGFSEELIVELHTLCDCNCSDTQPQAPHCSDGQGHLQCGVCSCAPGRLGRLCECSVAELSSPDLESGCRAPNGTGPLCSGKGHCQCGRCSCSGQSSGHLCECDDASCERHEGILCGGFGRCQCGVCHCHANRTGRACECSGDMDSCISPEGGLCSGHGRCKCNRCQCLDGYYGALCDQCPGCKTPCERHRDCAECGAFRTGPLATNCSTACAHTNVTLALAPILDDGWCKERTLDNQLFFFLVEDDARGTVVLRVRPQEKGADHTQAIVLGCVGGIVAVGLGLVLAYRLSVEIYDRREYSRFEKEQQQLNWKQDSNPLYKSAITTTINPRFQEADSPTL
# Experiment: α4β7 Integrin Cell Capture Assay
# Type: cell-based
# Details: capture of α4β7 integrin expressing RPMI8866 cells on recombinant MadCAM-1 extracellular domain-coated plate; DMEM+0.5% FBS+0.5 mM MnCl2; read-out: EC50 α4β7
# Description: α4β7 Integrin Cell Capture Assay
# The potency of inhibitors in preventing α4β7 integrin interaction with MadCAM-1 was measured by monitoring the capture of α4β7 integrin expressing cells on a recombinant MadCAM-1 extracellular domain-coated plate.
# 384-Well plates (Corning 3702) were coated with MadCAM-1 extracellular domain by dispensing 20 μL of MAdCAM-1 at 1.0 μg/mL per well and incubating overnight at 4° C. The plates were then washed with PBS and blocked with 3% BSA for 2 hours before being washed again.
# RPMI8866 cells were spun down and re-suspended in assay medium (DMEM+0.5% FBS+0.5 mM MnCl2) at a density of 0.5×10^6 cells/mL. The cells were then dispensed (60 μL/well) to a 384-well plate (Greiner 781280) that was previously spotted with 60 nL of test compound per well. The plates were incubated at 37° C. for 1 hour. 50 μL of cells were transferred to the blocked, MadCAM-1-coated plates and incubated for 30 minutes at 37° C. 10 μL of 12% glutaraldehyde containing Hoechst 33342 (0.06 mg/mL) was added to the cells (2% glutaraldehyde and 0.01 mg/mL final concentrations). The plates were incubated for 90 minutes at room temperature. The plates were then washed 3 times with 70 μL of PBS per well and imaged on a Cellomics ArrayScan instrument. The cells that were bound to the plate were counted and plotted against the compound concentration to determine the EC50 of the test compounds.
row,SMILES,EC50 [nM]
1,"Cc1cc(C(F)(F)F)c(-c2ccc(C[C@H](NC(=O)c3c(Cl)cccc3Cl)C(=O)O)c3ncccc23)nn1 [Example 16, (S)-2-(2,6-dichlorobenzamido)-3-(5-(6-methyl-4-(trifluoromethyl)pyridazin-3-yl)quinolin-8-yl)propanoic acid]",144
2,"CC[C@@H](Nc1cc(F)c(C(=O)N[C@@H](Cc2ccc(-c3c(C(F)(F)F)cc(C)n(C)c3=O)c3ccccc23)C(=O)O)c(F)c1)C(F)(F)F (single isomer, unassigned) [Example 134]",8.3
3,"CCn1cccc(-c2ccc(C[C@H](NC(=O)c3c(Cl)cccc3Cl)C(=O)O)c3ncccc23)c1=O [Example 22, (S)-2-(2,6-dichlorobenzamido)-3-(5-(1-ethyl-2-oxo-1,2-dihydropyridin-3-yl)quinolin-8-yl)propanoic acid]",123
4,"Cn1cc(C(F)(F)F)cc(-c2ccc(C[C@H](NC(=O)c3c(Cl)cccc3Cl)C(=O)O)c3ncccc23)c1=O [Example 23, (S)-2-(2,6-dichlorobenzamido)-3-(5-(1-methyl-2-oxo-5-(trifluoromethyl)-1,2-dihydropyridin-3-yl)quinolin-8-yl)propanoic acid]",18.5
5,"CC[C@@H](Nc1cc(F)c(C(=O)N[C@@H](Cc2ccc(-c3c(OC)cnn(C)c3=O)c3ccccc23)C(=O)O)c(F)c1)C(F)(F)F (single isomer, unassigned) [Example 136]",0.8
6,"COc1c(-c2ccc(C[C@H](NC(=O)c3c(Cl)cccc3Cl)C(=O)O)c3ncccc23)ccc(F)c1F [Example 43, (S)-2-(2,6-dichlorobenzamido)-3-(5-(3,4-difluoro-2-methoxyphenyl)quinolin-8-yl)propanoic acid]",161
7,"O=C(N[C@@H](Cc1ccc(-c2cccc3scnc23)c2cccnc12)C(=O)O)c1c(Cl)cccc1Cl [Example 14, (S)-3-(5-(benzo[d]thiazol-4-yl)quinolin-8-yl)-2-(2,6-dichlorobenzamido) propanoic acid]",57.7
8,"O=C(N[C@@H](Cc1ccc(-c2cccc3c2COCC3)c2cccnc12)C(=O)O)c1c(Cl)cccc1Cl [Example 20, (S)-2-(2,6-dichlorobenzamido)-3-(5-(isochroman-8-yl)quinolin-8-yl)propanoic acid]",374
9,"COc1cccc(OC)c1-c1ccc(C[C@H](NC(=O)c2c(F)cc(NS(=O)(=O)c3ccc(-n4cncn4)cc3)cc2F)C(=O)O)c2ccccc12 [Example 104, (S)-2-(4-((4-(1H-1,2,4-triazol-1-yl)phenyl)sulfonamido)-2,6-difluorobenzamido)-3-(4-(2,6-dimethoxyphenyl)naphthalen-1-yl)propanoic acid]",0.8
10,"COc1cccc(OC)c1-c1ccc(C[C@@H](NC(=O)c2c(F)cc(NS(=O)(=O)c3ccc(-n4cncn4)cc3)cc2F)C(=O)O)c2ccncc12 (single isomer, unassigned) [Example 165]",37.8
11,"COc1cc(F)c(C)cc1-c1ccc(C[C@H](NC(=O)c2c(Cl)cccc2Cl)C(=O)O)c2ncccc12 [Example 56, (S)-2-(2,6-dichlorobenzamido)-3-(5-(4-fluoro-2-methoxy-5-methylphenyl)quinolin-8-yl)propanoic acid]",68.5
12,"CC[C@@H](Nc1cc(F)c(C(=O)N[C@@H](Cc2ccc(-c3c(OC)cc(C)n(C)c3=O)c3ccccc23)C(=O)O)c(F)c1)C(F)(F)F (single isomer, unassigned) [Example 131]",0.5
13,"COc1cc(F)cc(Cl)c1-c1ccc(C[C@H](NC(=O)c2c(Cl)cccc2Cl)C(=O)O)c2ncccc12 (single isomer, unassigned) [Example 53]",150
14,"COc1cc(C)n(C)c(=O)c1-c1ccc(C[C@H](NC(=O)c2c(F)cc(N3CCOC[C@@H]3C(F)(F)F)cc2F)C(=O)O)c2ccccc12 (single isomer, unassigned) [Example 125]",0.5
15,"CCOCc1cc(OC)c(-c2ccc(C[C@@H](NC(=O)c3c(F)cc(NS(=O)(=O)c4ccc(-c5ccnc(F)c5)cc4)cc3F)C(=O)O)c3c2cnn3C)c(OC)c1 (single isomer, unassigned) [Example 145]",34.9
16,"O=C(N[C@@H](Cc1ccc(-c2c(Cl)cc(F)cc2Cl)c2ccccc12)C(=O)O)c1c(Cl)cccc1Cl [Example 107, (S)-3-(4-(2,6-dichloro-4-fluorophenyl)naphthalen-1-yl)-2-(2,6-dichlorobenzamido)propanoic acid]",139
17,"CC[C@@H](Nc1cc(F)c(C(=O)N[C@@H](Cc2ccc(-c3c(C)n(C)c(=O)n(C)c3=O)c3cccnc23)C(=O)O)c(F)c1)C(F)(F)F (single isomer, unassigned) [Example 8]",0.8
18,"O=C(N[C@@H](Cc1ccc(-c2ccc(F)cc2Cl)c2c(Cl)ccnc12)C(=O)O)c1c(F)cccc1F [Example 90, (S)-3-(4-chloro-5-(2-chloro-4-fluorophenyl)quinolin-8-yl)-2-(2,6-difluorobenzamido)propanoic acid]",4280
19,"COc1cccc(F)c1C(=O)N[C@@H](Cc1ccc(-c2c(Cl)cc(F)cc2Cl)c2cccnc12)C(=O)O [Example 2, (S)-3-(5-(2,6-dichloro-4-fluorophenyl)quinolin-8-yl)-2-(2-fluoro-6-methoxybenzamido)propanoic acid]",417
20,"O=C(N[C@@H](Cc1ccc(-c2ncc3ccccc3c2Br)c2ccccc12)C(=O)O)c1c(F)cccc1F [Example 114, (S)-3-(4-(4-bromoisoquinolin-3-yl)naphthalen-1-yl)-2-(2,6-difluorobenzamido)propanoic acid]",29.9
21,"Cc1c(-c2ccc(C[C@H](NC(=O)c3c(F)cc(N4CCOC[C@@H]4C(F)(F)F)cc3F)C(=O)O)c3ncccc23)c(=O)n(C)c2ccc(F)cc12 (single isomer, unassigned) [Example 87]",2.9
22,"Cc1cc(C(F)(F)F)c(-c2ccc(C[C@H](NC(=O)c3c(F)cc(N4CCOC[C@@H]4C(F)(F)F)cc3F)C(=O)O)c3ncccc23)c(=O)n1C (single isomer, unassigned) [Example 85]",3
23,"Cn1c(=O)c(-c2ccc(C[C@H](NC(=O)c3c(Cl)cccc3Cl)C(=O)O)c3ncccc23)c(C(F)(F)F)c2ccccc21 (single isomer, unassigned) [Example 63]",33.8
